Series [1] can be described thus: Effective permeability of the compound at 50 uM after 18 hrs by UV spectroscopy based PAMPA. The class given is ADME. The conditions noted are these: read-out: Peff.
Series [2] has as its target cGMP-specific 3',5'-cyclic phosphodiesterase (Homo sapiens, UniProt O76074). The experiment in a line: Inhibition of full length human recombinant N-terminal GST-tagged PDE5A1 expressed in baculovirus infected sf9 cells using cGMP as substrate after 30 mins by fluorescence assay.
Series [3] can be described thus: cells. The conditions noted are these: Homo sapiens, SH-SY5Y, 2 h, read-out: FC.
Series [4] has as its target Histone deacetylase 2 (Homo sapiens, UniProt Q92769). Briefly: Inhibition of full length human recombinant C-terminal His-tagged HDAC2 expressed in baculovirus infected sf9 cells using fluorogenic HDAC substrate 3 after 30 mins by fluorescence assay.
Series [5] is described as follows: cells. The conditions noted are these: Homo sapiens, SH-SY5Y, 2 h, read-out: FC. This is another data set of the same source.
Series [6] is described as follows: cells. The conditions noted are these: Homo sapiens, SH-SY5Y, 2 h, read-out: FC. The source holds these as a separate data set.
The target of series [7] is T1, Protein deacetylase HDAC6 (Homo sapiens, UniProt Q9UBN7).
T1 sequence (Q9UBN7 whole entry): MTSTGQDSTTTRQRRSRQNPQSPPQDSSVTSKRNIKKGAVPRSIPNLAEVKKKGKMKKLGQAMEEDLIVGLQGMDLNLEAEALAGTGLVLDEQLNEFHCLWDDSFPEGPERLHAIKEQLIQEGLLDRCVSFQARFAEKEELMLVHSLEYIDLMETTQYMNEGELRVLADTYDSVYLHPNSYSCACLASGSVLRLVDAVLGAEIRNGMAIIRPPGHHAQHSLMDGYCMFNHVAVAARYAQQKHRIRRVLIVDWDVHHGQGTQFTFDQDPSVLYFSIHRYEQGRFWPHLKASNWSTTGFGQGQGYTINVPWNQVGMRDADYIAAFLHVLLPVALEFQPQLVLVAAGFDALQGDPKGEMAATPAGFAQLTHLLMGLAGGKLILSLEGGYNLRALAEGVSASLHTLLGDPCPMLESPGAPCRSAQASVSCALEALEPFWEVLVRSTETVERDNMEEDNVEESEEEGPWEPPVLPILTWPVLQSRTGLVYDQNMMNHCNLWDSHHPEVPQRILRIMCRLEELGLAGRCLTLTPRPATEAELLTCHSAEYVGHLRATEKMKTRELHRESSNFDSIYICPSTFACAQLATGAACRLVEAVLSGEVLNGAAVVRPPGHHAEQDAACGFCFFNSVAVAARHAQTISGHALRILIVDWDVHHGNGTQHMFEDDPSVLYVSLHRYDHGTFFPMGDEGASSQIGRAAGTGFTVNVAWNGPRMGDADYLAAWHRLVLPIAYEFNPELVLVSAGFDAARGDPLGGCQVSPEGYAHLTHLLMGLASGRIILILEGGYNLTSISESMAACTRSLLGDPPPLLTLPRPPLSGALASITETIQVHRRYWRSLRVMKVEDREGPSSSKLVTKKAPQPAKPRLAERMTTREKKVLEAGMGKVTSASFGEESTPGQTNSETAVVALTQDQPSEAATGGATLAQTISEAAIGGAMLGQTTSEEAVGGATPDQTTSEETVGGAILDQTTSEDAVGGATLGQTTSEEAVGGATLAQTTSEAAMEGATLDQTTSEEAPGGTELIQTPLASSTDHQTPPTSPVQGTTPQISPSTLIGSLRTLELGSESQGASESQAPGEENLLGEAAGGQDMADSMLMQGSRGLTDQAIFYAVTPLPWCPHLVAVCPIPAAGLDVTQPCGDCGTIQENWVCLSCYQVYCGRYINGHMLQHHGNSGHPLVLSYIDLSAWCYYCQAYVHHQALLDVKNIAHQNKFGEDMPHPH
The experiment in a line: Inhibition of full length human recombinant N-terminal GST-tagged HDAC6 expressed in baculovirus infected sf9 cells using fluorogenic HDAC substrate 3 after 30 mins by fluorescence assay.

In series [8] the target is Histone deacetylase 1 (Homo sapiens, UniProt Q13547). Briefly: Inhibition of full length human recombinant C-terminal FLAG/His-tagged HDAC1 expressed in baculovirus infected sf9 cells using fluorogenic HDAC substrate 3 after 30 mins by fluorescence assay.
Chain of Histone deacetylase 1 (Q13547 whole entry): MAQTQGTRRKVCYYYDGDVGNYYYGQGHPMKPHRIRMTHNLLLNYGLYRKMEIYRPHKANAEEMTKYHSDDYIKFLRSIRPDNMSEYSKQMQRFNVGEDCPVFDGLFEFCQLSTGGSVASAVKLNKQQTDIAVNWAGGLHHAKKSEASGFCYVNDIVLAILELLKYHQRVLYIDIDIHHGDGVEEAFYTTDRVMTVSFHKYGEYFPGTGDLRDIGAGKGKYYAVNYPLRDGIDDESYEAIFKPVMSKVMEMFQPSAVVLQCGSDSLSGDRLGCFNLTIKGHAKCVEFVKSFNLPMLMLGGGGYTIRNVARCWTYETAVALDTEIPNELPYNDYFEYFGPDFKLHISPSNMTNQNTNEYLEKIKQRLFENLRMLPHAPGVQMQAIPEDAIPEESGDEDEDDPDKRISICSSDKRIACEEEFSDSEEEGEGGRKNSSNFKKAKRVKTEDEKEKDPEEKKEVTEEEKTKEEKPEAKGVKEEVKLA
A short description of series [9]: Cytotoxicity against human THLE2 cells after 72 hrs by vialight cell proliferation assay. Type of series: cell-based, THLE-2. The conditions noted are these: read-out: LC50.
The target of series [10] is Histone deacetylase 3/Nuclear receptor corepressor 2 (HDAC3/NCoR2) (Homo sapiens, UniProt O15379). Briefly: Inhibition of full length human recombinant C-terminal His-tagged HDAC3/N-terminal GST-tagged NCOR2 (95 to 489 residues) expressed in baculovirus infected sf9 cells using fluorogenic HDAC substrate 3 after 30 mins by fluorescence assay.
Chain of Histone deacetylase 3/Nuclear receptor corepressor 2 (HDAC3/NCoR2) (O15379 whole entry, the tested form may be a part): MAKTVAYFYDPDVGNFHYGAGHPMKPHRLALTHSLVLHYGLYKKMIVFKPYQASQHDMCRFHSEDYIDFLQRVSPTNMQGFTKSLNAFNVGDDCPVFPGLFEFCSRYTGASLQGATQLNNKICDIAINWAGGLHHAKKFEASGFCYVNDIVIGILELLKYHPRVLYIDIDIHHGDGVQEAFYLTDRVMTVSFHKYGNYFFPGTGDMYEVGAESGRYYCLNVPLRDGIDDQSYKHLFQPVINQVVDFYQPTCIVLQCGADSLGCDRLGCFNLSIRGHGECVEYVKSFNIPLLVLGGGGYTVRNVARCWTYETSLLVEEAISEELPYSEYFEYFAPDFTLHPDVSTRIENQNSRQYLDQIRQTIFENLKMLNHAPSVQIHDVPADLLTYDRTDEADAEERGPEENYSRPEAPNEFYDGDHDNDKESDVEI
Chain of Histone deacetylase 3/Nuclear receptor corepressor 2 (HDAC3/NCoR2) (Q9Y618 whole entry, further chain, the tested form may be a part): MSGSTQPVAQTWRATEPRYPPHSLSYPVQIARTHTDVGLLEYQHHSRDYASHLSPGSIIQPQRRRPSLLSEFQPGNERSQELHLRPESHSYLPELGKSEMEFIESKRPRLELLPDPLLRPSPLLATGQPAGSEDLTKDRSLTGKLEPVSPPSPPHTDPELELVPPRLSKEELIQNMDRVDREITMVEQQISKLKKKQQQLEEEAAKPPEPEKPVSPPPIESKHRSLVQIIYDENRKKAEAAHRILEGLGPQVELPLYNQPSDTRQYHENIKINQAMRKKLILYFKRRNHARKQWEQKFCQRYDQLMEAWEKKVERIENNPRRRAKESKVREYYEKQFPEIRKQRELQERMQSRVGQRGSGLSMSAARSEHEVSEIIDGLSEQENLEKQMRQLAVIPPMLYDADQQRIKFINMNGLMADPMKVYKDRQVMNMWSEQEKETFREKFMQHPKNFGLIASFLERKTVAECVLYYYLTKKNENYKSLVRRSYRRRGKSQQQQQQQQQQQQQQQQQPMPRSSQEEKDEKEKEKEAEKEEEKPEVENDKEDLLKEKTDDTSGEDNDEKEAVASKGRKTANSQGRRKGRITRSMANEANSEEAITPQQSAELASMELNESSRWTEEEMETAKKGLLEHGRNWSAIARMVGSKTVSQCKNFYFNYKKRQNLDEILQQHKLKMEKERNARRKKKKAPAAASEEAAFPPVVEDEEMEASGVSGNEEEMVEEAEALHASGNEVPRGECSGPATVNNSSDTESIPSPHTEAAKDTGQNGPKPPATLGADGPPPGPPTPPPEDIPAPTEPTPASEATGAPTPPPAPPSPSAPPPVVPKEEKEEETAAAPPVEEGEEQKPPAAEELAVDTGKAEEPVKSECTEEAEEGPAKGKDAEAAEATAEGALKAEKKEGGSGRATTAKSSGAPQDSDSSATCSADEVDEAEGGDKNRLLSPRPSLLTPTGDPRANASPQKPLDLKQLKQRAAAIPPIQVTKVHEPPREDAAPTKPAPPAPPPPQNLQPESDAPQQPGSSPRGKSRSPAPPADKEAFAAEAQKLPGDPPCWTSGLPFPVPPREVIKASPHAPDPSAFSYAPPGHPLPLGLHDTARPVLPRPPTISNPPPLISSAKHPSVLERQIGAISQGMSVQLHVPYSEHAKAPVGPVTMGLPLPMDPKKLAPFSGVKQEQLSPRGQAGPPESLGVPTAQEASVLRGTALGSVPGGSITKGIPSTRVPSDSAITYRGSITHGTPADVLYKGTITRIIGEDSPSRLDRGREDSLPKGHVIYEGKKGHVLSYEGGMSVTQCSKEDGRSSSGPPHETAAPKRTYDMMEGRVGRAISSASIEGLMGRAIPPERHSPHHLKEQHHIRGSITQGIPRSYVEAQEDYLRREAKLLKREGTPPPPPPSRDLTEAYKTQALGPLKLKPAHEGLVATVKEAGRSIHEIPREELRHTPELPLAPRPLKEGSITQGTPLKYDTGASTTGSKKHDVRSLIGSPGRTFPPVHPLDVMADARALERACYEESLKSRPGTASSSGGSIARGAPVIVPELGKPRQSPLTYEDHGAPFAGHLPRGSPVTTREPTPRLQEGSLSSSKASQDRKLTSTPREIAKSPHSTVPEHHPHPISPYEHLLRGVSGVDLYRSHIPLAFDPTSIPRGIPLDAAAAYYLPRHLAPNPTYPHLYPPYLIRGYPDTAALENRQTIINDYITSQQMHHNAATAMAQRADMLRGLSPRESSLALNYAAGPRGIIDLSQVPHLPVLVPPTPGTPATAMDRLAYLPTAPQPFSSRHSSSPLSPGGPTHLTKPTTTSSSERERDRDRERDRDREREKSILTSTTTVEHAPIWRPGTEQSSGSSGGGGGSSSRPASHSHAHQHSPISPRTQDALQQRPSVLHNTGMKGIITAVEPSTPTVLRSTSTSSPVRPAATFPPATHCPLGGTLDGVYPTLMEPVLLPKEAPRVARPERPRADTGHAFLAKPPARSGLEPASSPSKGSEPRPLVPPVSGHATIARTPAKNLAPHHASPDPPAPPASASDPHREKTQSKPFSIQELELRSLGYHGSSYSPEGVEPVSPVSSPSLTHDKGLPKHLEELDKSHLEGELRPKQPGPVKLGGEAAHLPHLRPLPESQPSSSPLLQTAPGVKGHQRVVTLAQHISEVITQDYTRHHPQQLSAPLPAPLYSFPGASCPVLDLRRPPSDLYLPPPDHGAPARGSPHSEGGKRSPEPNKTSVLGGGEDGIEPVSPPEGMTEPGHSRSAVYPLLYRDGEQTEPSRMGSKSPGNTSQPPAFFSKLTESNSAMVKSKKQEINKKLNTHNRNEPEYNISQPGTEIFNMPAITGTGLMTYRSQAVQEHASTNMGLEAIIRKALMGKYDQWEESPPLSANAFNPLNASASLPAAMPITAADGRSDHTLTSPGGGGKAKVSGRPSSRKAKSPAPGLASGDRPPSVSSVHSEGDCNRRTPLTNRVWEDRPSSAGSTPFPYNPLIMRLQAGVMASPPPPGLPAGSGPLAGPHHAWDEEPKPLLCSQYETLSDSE

Where only a bound is given, the exact number is not on record here.

Chain of Histone deacetylase 2 (Q92769 whole entry): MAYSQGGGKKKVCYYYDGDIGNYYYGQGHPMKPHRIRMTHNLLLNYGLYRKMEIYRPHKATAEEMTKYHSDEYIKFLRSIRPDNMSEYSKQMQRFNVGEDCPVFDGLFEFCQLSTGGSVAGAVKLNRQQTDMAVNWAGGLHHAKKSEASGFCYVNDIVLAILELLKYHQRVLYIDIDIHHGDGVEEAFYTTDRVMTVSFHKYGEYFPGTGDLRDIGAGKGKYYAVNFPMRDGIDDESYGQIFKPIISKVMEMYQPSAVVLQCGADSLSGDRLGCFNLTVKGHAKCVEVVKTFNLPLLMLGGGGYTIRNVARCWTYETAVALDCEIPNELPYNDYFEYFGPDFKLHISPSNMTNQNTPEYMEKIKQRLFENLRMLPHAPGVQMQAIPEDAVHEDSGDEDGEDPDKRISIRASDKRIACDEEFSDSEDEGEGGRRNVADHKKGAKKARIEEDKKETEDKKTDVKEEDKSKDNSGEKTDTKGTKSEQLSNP

For orientation: IC50 means the midpoint of a concentration-inhibition curve. For `CCCc1nc(C)c2c(=O)[nH]c(-c3cc(Cc4ccc(C(=O)NO)cc4)ccc3OCC)nn12`, the Papp at 18 h, 50 µM in series [1] is 1.86 ×10⁻⁶ cm/s. The IC50 came out at 13 nM in series [2], 5190 nM in series [4], 256 nM in series [7] and 1830 nM in [8]. In series [3], the fold induction at 0.1 µM is 0.4. Besides, the fold induction at 0.5 µM in series [5] worked out at 0.9. The fold induction at 1 µM in [6] worked out at 1.3. Also, the CC50 at 72 h in series [9] came to 26700 nM.
For `CCCc1nn(C)c2c(=O)[nH]c(-c3cc(Cc4ccc(C(=O)NO)o4)ccc3OCC)nc12`, the IC50 in [2] is 3 nM; in series [4], 17500 nM; in [10], more than 20000 nM; in series [7], 168 nM; in [8], 2230 nM.
Take `CCCc1nn(C)c2c(=O)[nH]c(-c3cc(C(OC)c4ccc(C(=O)NO)cc4)ccc3OCC)nc12` (stereo not drawn): the IC50 in series [2] is 20 nM; in series [4] it was 1110 nM; in [7], 77 nM; in [8] it was 357 nM.
With `CCCc1nn(C)c2c(=O)[nH]c(-c3cc(C(=O)c4ccc(C(=O)NO)s4)ccc3OCC)nc12`, the IC50 came out at 3 nM in [2], 799 nM in series [4], 192 nM in series [7] and 276 nM in [8].
The matching figures for `CCCc1nn(C)c2c(=O)[nH]c(-c3cc(Cc4ccc(C(=O)NO)c(OC)c4)ccc3OCC)nc12`: 144 nM, more than 20000 nM, more than 20000 nM and more than 20000 nM.
Take `CCCc1nn(C)c2c(=O)[nH]c(-c3cc(N4CCC(C(=O)NO)CC4)ccc3OCC)nc12`: the IC50 was 36 nM in [2], more than 20000 nM in [4], 1180 nM in series [7] and 7200 nM in series [8].
In the case of `CCCc1nn(C)c2c(=O)[nH]c(-c3cc(OCc4ccc(C(=O)NO)cc4)ccc3OCC)nc12`, the IC50 in [2] was determined as 79 nM; in series [4] it was 11400 nM; in series [7], 33 nM; in [8], 1080 nM.
Take `CCCc1nn(C)c2c(=O)[nH]c(-c3cc([C@H]4CC[C@H](C(=O)NO)CC4)ccc3OCC)nc12`: the IC50 in series [2] was 190 nM; in series [4], more than 20000 nM; in series [7] it was 5440 nM; in [8] it was 10200 nM.
In the case of `CCCc1nn(C)c2c(=O)[nH]c(-c3cc(-c4ccc(C(=O)NO)cc4)ccc3OCC)nc12`, the Papp at 18 h, 50 µM in [1] was 2.68 ×10⁻⁶ cm/s. Further, the IC50 in series [2] was 1 nM; in [4], 2550 nM; in series [7], 42 nM; in series [8], 326 nM. Further, the fold induction at 0.1 µM in [3] stood at 0.8. Besides, the fold induction at 0.5 µM in [5] is 1.7. In addition, in series [6], the fold induction at 1 µM was found to be 3.6. Moreover, the CC50 at 72 h in series [9] stood at 8830 nM.
Regarding `CCCc1nn(C)c2c(=O)[nH]c(-c3cc(-c4ccc(C(=O)NO)s4)ccc3OCC)nc12`, the Papp at 18 h, 50 µM in series [1] is 2.82 ×10⁻⁶ cm/s. For the same compound, the IC50 was 7 nM in series [2], 4800 nM in [4], 37 nM in series [7] and 387 nM in series [8]. The fold induction at 0.1 µM in series [3] was 1.1. The fold induction at 0.5 µM in series [5] was found to be 2.5. The fold induction at 1 µM in series [6] was found to be 2.7. Also, the CC50 at 72 h in series [9] came out at 2180 nM.
For `CCCc1nc(C)c2c(=O)[nH]c(-c3cc(Cc4ccc(C(=O)NO)s4)ccc3OCC)nn12`, in series [1], the Papp at 18 h, 50 µM was determined as 1.6 ×10⁻⁶ cm/s. The IC50 worked out at 3 nM in series [2], 4390 nM in series [4], 98 nM in series [7] and 793 nM in series [8]. The fold induction at 0.1 µM in series [3] amounted to 0.7. Also, the fold induction at 0.5 µM in [5] is 0.9. Moreover, the fold induction at 1 µM in [6] came to 0.8. For the same compound, in series [9], the CC50 at 72 h was 6940 nM.
Turning to `CCCc1nn(C)c2c(=O)[nH]c(-c3cc(Cc4ccc(C(=O)NO)c(F)c4)ccc3OCC)nc12`, the Papp at 18 h, 50 µM in [1] turned out to be 2.84 ×10⁻⁶ cm/s. The IC50 in [2] was 31 nM; in series [4], more than 20000 nM; in [7], 142 nM; in [8] it was 1110 nM. In addition, in [3], the fold induction at 0.1 µM amounted to 2. The fold induction at 0.5 µM in series [5] stood at 2.7. Further, the fold induction at 1 µM in [6] is 1.4. For the same compound, the CC50 at 72 h in [9] came out at 3510 nM.
`CCCc1nn(C)c2c(=O)[nH]c(-c3cc(C4=CCC(CC(=O)NO)CC4)ccc3OCC)nc12` (stereo not drawn): the IC50 in [2] is 14 nM; in series [4] it was more than 20000 nM; in [7] it was 217 nM; in series [8] it was 1810 nM.
Consider `CCCc1nn(C)c2c(=O)[nH]c(-c3cc(Cc4ccc(C(=O)NO)cc4F)ccc3OCC)nc12`, for which the Papp at 18 h, 50 µM in series [1] came out at 3.7 ×10⁻⁶ cm/s. Moreover, the IC50 was 149 nM in [2], 14600 nM in [4], 87 nM in series [7] and 2030 nM in series [8]. Further, the fold induction at 0.1 µM in series [3] was 0.9. For the same compound, in [5], the fold induction at 0.5 µM amounted to 1.1. For the same compound, in series [6], the fold induction at 1 µM was 1.6. Also, the CC50 at 72 h in series [9] amounted to 16500 nM.
Consider `CCCc1nn(C)c2c(=O)[nH]c(-c3cc(C4CCC(C(=O)NO)CC4)ccc3OCC)nc12` (stereo not drawn), for which the IC50 is 146 nM in [2], more than 20000 nM in series [4], 3110 nM in [7] and 8380 nM in series [8].
`CCCc1nn(C)c2c(=O)[nH]c(-c3cc([C@H]4CC[C@@H](C(=O)NO)CC4)ccc3OCC)nc12`: the Papp at 18 h, 50 µM in series [1] came to 1.68 ×10⁻⁶ cm/s. Besides, the IC50 in series [2] was 53 nM; in series [4] it was more than 20000 nM; in series [7] it was 48 nM; in [8], 937 nM. Also, the fold induction at 0.1 µM in [3] was determined as 0.7. Further, the fold induction at 0.5 µM in [5] worked out at 1.8. For the same compound, in series [6], the fold induction at 1 µM amounted to 5.4. Moreover, the CC50 at 72 h in series [9] turned out to be 16000 nM.
As to `CCCc1nn(C)c2c(=O)[nH]c(-c3cc(S(=O)(=O)N4CCN(C)CC4)ccc3OCC)nc12`, in [9], the CC50 at 72 h was more than 100000 nM.
On to `CCCc1nn(C)c2c(=O)[nH]c(-c3cc(Cc4ccc(C(=O)NO)cc4OC)ccc3OCC)nc12`, for which the IC50 in [2] is 47 nM; in [4], more than 20000 nM; in series [7], more than 20000 nM; in [8] it was more than 20000 nM.
For `CCCc1nc(C)c2c(=O)[nH]c(-c3cc(S(=O)(=O)N4CCN(CC)CC4)ccc3OCC)nn12`, the Papp at 18 h, 50 µM in series [1] was found to be 2.14 ×10⁻⁶ cm/s. Moreover, in series [9], the CC50 at 72 h was more than 100000 nM.
For `CCCc1nn(C)c2c(=O)[nH]c(-c3cc(C(O)c4ccc(C(=O)NO)cc4)ccc3OCC)nc12` (stereo not drawn), the IC50 in series [2] was 10 nM; in [4], 1110 nM; in series [7], 89 nM; in series [8] it was 335 nM.
As to `CCCc1nn(C)c2c(=O)[nH]c(-c3cc(-c4ccc(CC(=O)NO)cc4)ccc3OCC)nc12`, the Papp at 18 h, 50 µM in series [1] is 1.97 ×10⁻⁶ cm/s. Also, the IC50 in series [2] was 10 nM; in [4] it was more than 20000 nM; in series [7], 815 nM; in [8], more than 20000 nM. The fold induction at 0.1 µM in series [3] stood at 0.6. Moreover, the fold induction at 0.5 µM in [5] was 0.8. Further, the fold induction at 1 µM in [6] came to 1.2. The CC50 at 72 h in series [9] was 15400 nM.
Turning to `CCCc1nn(C)c2c(=O)[nH]c(-c3cc(C4=CCC(C(=O)NO)CC4)ccc3OCC)nc12` (stereo not drawn), the half-inhibitory concentration (IC50) in series [2] is 27 nM; in series [4], more than 20000 nM; in series [7] it was 340 nM; in series [8], 2880 nM.
On the same counts, the results for `CCCc1nn(C)c2c(=O)[nH]c(-c3cc(Nc4ccc(C(=O)NO)cc4)ccc3OCC)nc12` are 2 nM, more than 20000 nM, 66 nM and 490 nM.
